Laboratory results: US20250144067A1, “PERSONALIZED STARVATION THERAPY FOR CANCER” (Faeth Therapeutics, Inc., priority 2021, published 2025)
Counter-ions that a name gives are not always drawn. Like-named read-outs stand apart in the source and are kept apart here.

Columns and labels:
[1] = system: NCI-H292 lung cancer cells; test: FDA drug screening, complete media vs cholesterol-free media without statin (TABLE 1); type: cell-based, human
[2] = system: NCI-H292 lung cancer cells; test: FDA drug screening, complete media vs cholesterol-free media with simvastatin (TABLE 2); type: cell-based, human
[3] = Complete minus Cholesterol-free, >0 enhanced anti-cancer activity, about 0 neutral, <0 antagonist
[4] = NCI-H292 cells, cholesterol-free media without statin
[5] = NCI-H292 cells, cholesterol-free media with simvastatin 0.04 μM, cell growth value in FDA drug screen
[6] = NCI-H292 cells, complete media, cell growth value in FDA drug screen
[7] = complete media minus cholesterol-free media + simvastatin, >0 enhanced anti-cancer activity, about 0 neutral, <0 antagonist
[8] = Complete minus Cholesterol-free, […]
[9] = NCI-H292 cells, cholesterol-free media with simvastatin 0.04 μM, FDA drug library screen (TABLE 2)
[10] = NCI-H292 cells, complete media, FDA drug library screen (TABLE 2)
[11] = complete media minus cholesterol-free media + simvastatin (0.04 μM), […]
[12] = NCI-H292 cells, cholesterol-free media without statin, FDA drug library screen
[13] = NCI-H292 cells, complete media, FDA drug library screen
[14] = complete vs cholesterol-free media, >0 enhanced anti-cancer activity, about 0 neutral, <0 antagonist
[15] = NCI-H292 cells, FDA drug library screen, cholesterol-free media with simvastatin 0.04 μM
[16] = NCI-H292 cells, FDA drug library screen, complete media
[17] = complete media vs cholesterol-free media + simvastatin (0.04 μM), >0 enhanced anti-cancer activity, about 0 neutral, <0 antagonist
[18] = Complete minus Cholesterol-free, greater than 0 enhanced anti-cancer activity, about 0 neutral, below 0 antagonist
[19] = NCI-H292 cells, FDA drug library screen, cholesterol-free media without statin
[20] = complete media minus cholesterol-free media + simvastatin (0.04 μM), >0 enhanced anti-cancer activity, about 0 neutral, <0 antagonist
[21] = NCI-H292 cells, FDA library drug in cholesterol-free media with simvastatin 0.04 μM
[22] = NCI-H292 cells, FDA library drug in complete media
[23] = complete media vs cholesterol-free media + simvastatin (0.04 μM), […]
[24] = complete vs cholesterol-free media, […]
[25] = Complete minus Cholesterol-free, greater than 0 enhanced anti-cancer activity, about 0 neutral, below 0 antagonists
[26] = NCI-H292 cells in cholesterol-free media without statin
[27] = NCI-H292 cells in complete media
[28] = NCI-H292 cells, drug in cholesterol-free media with simvastatin 0.04 μM
[29] = NCI-H292 cells, drug in complete media

## C[C@H](CCC(=O)O)[C@H]1CC[C@H]2[C@@H]3C(=O)C[C@@H]4CC(=O)CC[C@]4(C)[C@H]3CC(=O)[C@]12C [Dehydrocholic acid]
[1]; [3]
  Difference: −0.25
[1]; [4]
  Cholesterol-free: 1.151
[1]; NCI-H292 cells, complete media
  Complete: 0.9012
[2]; [5]
  Cholesterol-free media + simvastatin (0.04 μM): 0.8533
[2]; [6]
  Complete Media: 0.9003
[2]; [7]
  Difference: 0.05

## CN(C)CCOC(=O)COc1ccc(Cl)cc1 [Meclofenoxate (hydrochloride)]
[1]; [8]
  Difference: −0.28
[1]; [4]
  Cholesterol-free: 1.499
[1]; NCI-H292 cells, complete media
  Complete: 1.221
[2]; [9]
  Cholesterol-free media + simvastatin (0.04 μM): 1.001
[2]; [10]
  Complete Media: 0.9764
[2]; [11]
  Difference: −0.02

## CC(=O)OCC(=O)[C@H]1CC[C@H]2[C@@H]3CCC4=CC(=O)CC[C@]4(C)[C@H]3CC[C@]12C [Deoxycorticosterone acetate]
[1]; [12]
  Cholesterol-free: 0.7412
[1]; [13]
  Complete: 1.214
[1]; [14]
  Difference: 0.47
[2]; [15]
  Cholesterol-free media + simvastatin (0.04 μM): 0.9825
[2]; [16]
  Complete Media: 0.8887
[2]; [17]
  Difference: −0.09

## CC1=NN(c2ccccc2)C(=O)C1 [Edaravone]
[1]; [18]
  Difference: −0.18
[1]; [19]
  Cholesterol-free: 1.236
[1]; [16]
  Complete: 1.052
[2]; [9]
  Cholesterol-free media + simvastatin (0.04 μM): 1.019
[2]; [10]
  Complete Media: 1.02
[2]; [20]
  Difference: 0.00

## CC(C)=CCC[C@](C)(O)[C@H]1CC[C@]2(C)[C@@H]1[C@H](O)C[C@@H]1[C@@]3(C)CC[C@H](O[C@@H]4O[C@H](CO)[C@@H](O)[C@H](O)[C@H]4O[C@@H]4O[C@H](CO)[C@@H](O)[C@H](O)[C@H]4O)C(C)(C)[C@@H]3CC[C@]12C [20(S)-Ginsenoside Rg3]
[1]; [8]
  Difference: −0.21
[1]; [4]
  Cholesterol-free: 1.062
[1]; NCI-H292 cells, complete media
  Complete: 0.8564
[2]; [21]
  Cholesterol-free media + simvastatin (0.04 μM): 1.721
[2]; [22]
  Complete Media: 1.403
[2]; [23]
  Difference: −0.32

## O=C(OCc1ccccc1)c1ccccc1 [Benzyl benzoate]
[1]; [12]
  Cholesterol-free: 0.6319
[1]; [13]
  Complete: 1.132
[1]; [14]
  Difference: 0.50
[2]; [9]
  Cholesterol-free media + simvastatin (0.04 μM): 0.8319
[2]; [10]
  Complete Media: 0.7979
[2]; [20]
  Difference: −0.03

## O=C(CNC(=O)c1ccc(C2=NOC(c3cc(Cl)cc(C(F)(F)F)c3)(C(F)(F)F)C2)c2ccccc12)NCC(F)(F)F (centres unmarked) [Afoxolaner]
[1]; [12]
  Cholesterol-free: 1.008
[1]; [13]
  Complete: 1.19
[1]; [24]
  Difference: 0.18
[2]; [15]
  Cholesterol-free media + simvastatin (0.04 μM): 2.42
[2]; [11]
  Difference: −1.05

## N#Cc1nn(-c2c(Cl)cc(C(F)(F)F)cc2Cl)c(N)c1[S+]([O-])C(F)(F)F (centres unmarked) [Fipronil]
[1]; [8]
  Difference: −0.22
[1]; [4]
  Cholesterol-free: 1.217
[1]; NCI-H292 cells, complete media
  Complete: 1
[2]; [9]
  Cholesterol-free media + simvastatin (0.04 μM): 1.235
[2]; [10]
  Complete Media: 1.184
[2]; [11]
  Difference: −0.05

## NC(=O)c1ccccc1O [Salicylamide]
[1]; [25]
  Difference: −0.58
[1]; [26]
  Cholesterol-free: 1.486
[1]; [27]
  Complete: 0.907
[2]; [9]
  Cholesterol-free media + simvastatin (0.04 μM): 1.206
[2]; [10]
  Complete Media: 1.141
[2]; [20]
  Difference: −0.07

## CC[C@H]1CN2CC[C@H]1C[C@@H]2[C@@H](O)c1ccnc2ccc(OC)cc12 [Hydroquinidine]
[1]; [3]
  Difference: 0.06
[1]; [12]
  Cholesterol-free: 0.8191
[1]; [13]
  Complete: 0.8815
[2]; [21]
  Cholesterol-free media + simvastatin (0.04 μM): 1.791
[2]; [22]
  Complete Media: 1.518
[2]; [17]
  Difference: −0.27

## Cc1nnc(SCC2=C(C(=O)O)N3C(=O)[C@@H](NC(=O)Cn4cnnn4)[C@H]3SC2)s1 [Cefazolin]
[1]; [25]
  Difference: −0.54
[1]; [26]
  Cholesterol-free: 1.603
[1]; [27]
  Complete: 1.065
[2]; [15]
  Cholesterol-free media + simvastatin (0.04 μM): 1.197
[2]; [16]
  Complete Media: 1.069
[2]; [17]
  Difference: −0.13

## CC(=O)O[C@]1(C(C)=O)CC[C@H]2[C@@H]3C=C(Cl)C4=CC(=O)CC[C@]4(C)[C@H]3CC[C@@]21C [Chlormadinone acetate]
[1]; [25]
  Difference: −0.74
[1]; [26]
  Cholesterol-free: 1.695
[1]; [27]
  Complete: 0.9505
[2]; [9]
  Cholesterol-free media + simvastatin (0.04 μM): 1.079
[2]; [10]
  Complete Media: 1.06
[2]; [20]
  Difference: −0.02

## CC(=O)N(CC(O)CO)c1c(I)c(C(=O)NCCO)c(I)c(C(=O)NCC(O)CO)c1I (centres unmarked) [Ioxilan]
[1]; [3]
  Difference: 0.04
[1]; [12]
  Cholesterol-free: 1.015
[1]; [13]
  Complete: 1.05
[2]; [21]
  Cholesterol-free media + simvastatin (0.04 μM): 1.221
[2]; [22]
  Complete Media: 0.868
[2]; [17]
  Difference: −0.35

## N[C@@H](Cc1cc(I)c(Oc2ccc(O)c(I)c2)c(I)c1)C(=O)O [Liothyronine]
[1]; [3]
  Difference: −0.26
[1]; [4]
  Cholesterol-free: 1.173
[1]; NCI-H292 cells, complete media
  Complete: 0.9078
[2]; [15]
  Cholesterol-free media + simvastatin (0.04 μM): 1.186
[2]; [16]
  Complete Media: 1.048
[2]; [17]
  Difference: −0.14

## N[C@H]1C(O)O[C@H](CO)[C@@H](O)[C@@H]1O (some centres unmarked) [Glucosamine]
[1]; [4]
  Cholesterol-free: 1.17
[1]; NCI-H292 cells, complete media
  Complete: 0.7725
[1]; complete vs cholesterol-free media, greater than 0 enhanced anti-cancer activity, about 0 neutral, below 0 antagonists
  Difference: −0.40
[2]; [21]
  Cholesterol-free media + simvastatin (0.04 μM): 1.916
[2]; [17]
  Difference: −0.77

## COc1ccc2[nH]c([S+]([O-])Cc3ncc(C)c(OC)c3C)nc2c1 (centres unmarked) [Omeprazole]
[1]; [18]
  Difference: −0.12
[1]; [19]
  Cholesterol-free: 0.995
[1]; [16]
  Complete: 0.8798
[2]; [28]
  Cholesterol-free media + simvastatin (0.04 μM): 0.8585
[2]; [29]
  Complete Media: 0.6883
[2]; [17]
  Difference: −0.17

## Tenofovir alafenamide hemifumarate
[1]
  Cholesterol-free: 0.4256
  Complete: 0.5492
  Difference: 0.12
[2]
  Cholesterol-free media + simvastatin (0.04 μM): 0.5107
  Complete Media: 0.4195
  Difference: −0.09

## O=C1CCC[C@@H]2[C@H]3CCC[N+]4([O-])CCC[C@@H](CN12)[C@@H]34 (some centres unmarked) [Oxymatrine]
[1]; [3]
  Difference: 0.05
[1]; [12]
  Cholesterol-free: 0.9493
[1]; [13]
  Complete: 0.9958
[2]; [21]
  Cholesterol-free media + simvastatin (0.04 μM): 1.185
[2]; [22]
  Complete Media: 0.9014
[2]; [17]
  Difference: −0.28

## CCOCCn1c(N2CCCN(C)CC2)nc2ccccc21 [Emedastine]
[1]; [3]
  Difference: −0.27
[1]; [4]
  Cholesterol-free: 0.9896
[1]; NCI-H292 cells, complete media
  Complete: 0.7182
[2]; [5]
  Cholesterol-free media + simvastatin (0.04 μM): 0.8891
[2]; [6]
  Complete Media: 0.9093
[2]; [7]
  Difference: 0.02

## Icatibant (acetate)
[1]; [4]
  Cholesterol-free: 1.121
[1]; NCI-H292 cells, complete media
  Complete: 0.7693
[1]; [24]
  Difference: −0.35
[2]; [28]
  Cholesterol-free media + simvastatin (0.04 μM): 1.025
[2]; [29]
  Complete Media: 0.7948
[2]; [23]
  Difference: −0.23

## Lanreotide (acetate)
[1]; [8]
  Difference: −0.24
[1]; [4]
  Cholesterol-free: 1.287
[1]; NCI-H292 cells, complete media
  Complete: 1.045
[2]; [28]
  Cholesterol-free media + simvastatin (0.04 μM): 1.388
[2]; [29]
  Complete Media: 1.218
[2]; [23]
  Difference: −0.17

## Sorafenib (Tosylate)
[1]; [12]
  Cholesterol-free: 0.8797
[1]; [13]
  Complete: 0.9619
[1]; [24]
  Difference: 0.08
[2]; [15]
  Cholesterol-free media + simvastatin (0.04 μM): 1.142
[2]; [23]
  Difference: −0.09

## COc1ccc2[n-]c([S+]([O-])Cc3ncc(C)c(OC)c3C)nc2c1.COc1ccc2[n-]c([S+]([O-])Cc3ncc(C)c(OC)c3C)nc2c1.[Mg+2] (centres unmarked) [Esomeprazole magnesium]
[1]; [12]
  Cholesterol-free: 0.6797
[1]; [24]
  Difference: 0.50
[2]; [15]
  Cholesterol-free media + simvastatin (0.04 μM): 0.8343
[2]; [16]
  Complete Media: 1.003
[2]; complete media minus cholesterol-free media + simvastatin, […]
  Difference: 0.17
